Source: patent publication US20100028839A1, “METHODS AND SYSTEMS FOR EVALUATING MEMORY AGENTS” (priority 2008, published 2010)
Values joined by “and” are separate entries in the source; they are usually repeats but may differ in a detail not shown here. Identical values can stand only once.

Legend:
aged male macaques [1] = test: Discrimination Learning - Long Term Retrieval task (DL LTR); type: in vivo; details: for RT 1-14 (retention test trials 1 to 14), mean / RT 15-28 (retention test trials 15 to 28), mean / retention test, mean / RT overall / RT trials 1-14 / RT trials 15-28: day 8 post-criterion; for RT overall / RT trials 1-14 / RT trials 15-28: raw data of individual animals; for C value / Days to C: raw data of individual animals (Old-1, -2, -5, -7, -8, -9)
Experimental: (§1) The study was conducted using 6 aged male macaques (age approximately 22 years at onset of the study which is equivalent to approximately 66 human years) previously trained to performed certain memory tasks. Assessments of memory performance used the CANTAB system (the Cambridge Neuropsychological Test Automated Battery) and a new task.
In this task, animals are presented with 2 pairs of stimuli (e.g. 1 pair of shapes and 1 pair of lines) over the course of a daily test session. For each pair of stimuli, one stimulus is arbitrarily designated as the positive stimulus (i.e., touch of that stimulus is rewarded). Each pair of stimuli is presented 14 times during a daily session that consists of 28 trials. The pairs of stimuli (shapes or lines) are presented in a pseudo randomized fashion during each session. Animals have to touch the “positive” shape or line in order to receive a sugar pellet reward accompanied by a pleasant tone. Touching the alternative shape or line results in a negative tone, no sugar pellet and a time out. Animals are tested daily until they reach a performance criterion of 85% correct responses during a daily session. When this criterion is reached, animals receive no further testing for the next 7 days. On day 8 post-criterion, animals are tested again using the same pairs of stimuli that they have seen previously learned in order to assess long term retrieval of the learned discriminations.
(§2) All drugs were administered orally in marshmallow while the animal was in a specially designed testing cage. Vehicle was marshmallow alone.
(§3) Treatments were administered sequentially starting with treatment 1. Each treatment (dose of HT-0712 or vehicle) was administered once per day for 4 days before behavioral training began and then continued at 1 treatment (dose of HT-0712 or vehicle) per day, delivered four hours before testing, for the duration of the training period. When each individual animal reached performance criterion of at least 85% correct responses during a daily session, training and dosing ceased for seven days. Then, on post-criterion day 8, animals were tested again on the DL LTR task (retention testing).
The percent correct responses on the total number of daily trials were recorded as well as the number of days needed to reach the criterion (at least 85% correct responses in a single test session). The percent correct responses on the retention trial was recorded for the entire retention trial session and sub-analyzed for performance differences on trials 1-14 versus trials 15-28.
Data from vehicle trials were compared to data from drug trials using a one way ANOVA. Post hoc comparisons were made using the Bonferroni t-test.

aged male macaques [2] = test: Observation of behavioral or physical side effects during the DL LTR study; type: in vivo; details: any dose given (1, 10, 100 mg/kg p.o. daily)
Experimental: as §1, §2, §3
Data from this non-responder were removed from the statistical analysis.

aged rats = details: treatment of aged rats; cited from earlier work
[3] = 1 mg/kg p.o. daily, excluding NHP old-9 (N=5), mean±s.e.m.
[4] = 1 mg/kg p.o. daily, including NHP old-9 (N=6)
[5] = 1 mg/kg p.o. daily, entire study group including NHP old-9 (N=6)
[6] = 1 mg/kg p.o. daily, excluding non-responder NHP old-9 (N=5), mean±s.e.m.
[7] = 10 mg/kg p.o. daily, excluding NHP old-9 (N=5), mean±s.e.m.
[8] = 10 mg/kg p.o. daily, including NHP old-9 (N=6)
[9] = 10 mg/kg p.o. daily, entire study group including NHP old-9 (N=6)
[10] = 10 mg/kg p.o. daily, excluding non-responder NHP old-9 (N=5), mean±s.e.m.
[11] = 100 mg/kg p.o. daily, excluding NHP old-9 (N=5), mean±s.e.m.
[12] = 100 mg/kg p.o. daily, including NHP old-9 (N=6)
[13] = 100 mg/kg p.o. daily, entire study group including NHP old-9 (N=6)
[14] = 100 mg/kg p.o. daily, excluding non-responder NHP old-9 (N=5), mean±s.e.m.

Q: For `COc1ccc([C@H]2CNC(=O)[C@H](Cc3cccc(C)c3)C2)cc1OC1CCCC1` [HT-0712], which “RT 1-14 (retention test trials 1 to 14), mean” value (aged male macaques [1]; [3]) is on record?
A: 80.2±6.2 % correct responses and 80.200 % correct responses

Q: And the “RT 15-28 (retention test trials 15 to 28), mean” value (aged male macaques [1]; [3])?
A: 91.6±3.4 % correct responses and 91.600 % correct responses

Q: What about the “retention test, mean” value (aged male macaques [1]; [3]) of the same molecule?
A: 85.8±4.6 % correct responses and 85.800 % correct responses

Q: What about the “RT 1-14 (retention test trials 1 to 14), mean” value (aged male macaques [1]; [4]) of the same molecule?
A: 77.500 % correct responses

Q: What about the “RT 15-28 (retention test trials 15 to 28), mean” value (aged male macaques [1]; [4]) of the same molecule?
A: 88.167 % correct responses

Q: What about the “retention test, mean” value (aged male macaques [1]; [4]) of the same molecule?
A: 82.833 % correct responses

Q: What about the RT overall (aged male macaques [1]; 1 mg/kg p.o. daily) of the same molecule?
A: 89.00 % correct responses and 68.00 % correct responses (2×) and 93.00 % correct responses (2×) and 86.00 % correct responses

Q: And the “RT trials 1-14” value (aged male macaques [1]; 1 mg/kg p.o. daily)?
A: 86.00 % correct responses (2×) and 64.00 % correct responses and 93.00 % correct responses and 79.00 % correct responses and 57.00 % correct responses

Q: What about the “RT trials 15-28” value (aged male macaques [1]; 1 mg/kg p.o. daily) of the same molecule?
A: 93.00 % correct responses (3×) and 71.00 % correct responses and 100.00 % correct responses and 79.00 % correct responses

Q: And the “C value (criterion value reached), mean” value (aged male macaques [1]; [5])?
A: 91.000 % correct responses

Q: And the “day to C (days to reach criterion), mean” value (aged male macaques [1]; [5])?
A: 12.667 days

Q: What about the “C value (criterion value reached), mean” value (aged male macaques [1]; [6]) of the same molecule?
A: 91.4±1.8 % correct responses and 91.400 % correct responses

Q: And the “day to C (days to reach criterion), mean” value (aged male macaques [1]; [6])?
A: 12.0 ± 3.6 days and 12.000 days

Q: What about the C value (aged male macaques [1]; 1 mg/kg p.o. daily) of the same molecule?
A: 96.00 % correct responses and 89.00 % correct responses (2×) and 86.00 % correct responses and 93.00 % correct responses (2×)

Q: What about the “Days to C” value (aged male macaques [1]; 1 mg/kg p.o. daily) of the same molecule?
A: 4 days and 17 days and 15 days and 3 days and 21 days and 16 days

Q: What about the “RT 1-14 (retention test trials 1 to 14), mean” value (aged male macaques [1]; [7]) of the same molecule?
A: 71.4±3.4 % correct and 71.400 % correct

Q: And the “RT 15-28 (retention test trials 15 to 28), mean” value (aged male macaques [1]; [7])?
A: 87.2±4.8 % correct and 87.200 % correct

Q: What about the “retention test, mean” value (aged male macaques [1]; [7]) of the same molecule?
A: 79.2±3.5 % correct responses and 79.200 % correct responses

Q: What about the “RT 1-14 (retention test trials 1 to 14), mean” value (aged male macaques [1]; [8]) of the same molecule?
A: 73.833 % correct responses

Q: What about the “RT 15-28 (retention test trials 15 to 28), mean” value (aged male macaques [1]; [8]) of the same molecule?
A: 87.000 % correct responses

Q: And the “retention test, mean” value (aged male macaques [1]; [8])?
A: 80.333 % correct responses

Q: What about the RT overall (aged male macaques [1]; 10 mg/kg p.o. daily) of the same molecule?
A: 89.00 % correct responses and 86.00 % correct responses (2×) and 75.00 % correct responses (2×) and 71.00 % correct responses

Q: And the “RT trials 1-14” value (aged male macaques [1]; 10 mg/kg p.o. daily)?
A: 79.00 % correct responses (2×) and 86.00 % correct responses and 64.00 % correct responses (2×) and 71.00 % correct responses

Q: What about the “RT trials 15-28” value (aged male macaques [1]; 10 mg/kg p.o. daily) of the same molecule?
A: 100.00 % correct responses and 86.00 % correct responses (3×) and 71.00 % correct responses and 93.00 % correct responses

Q: And the “C value (criterion value reached), mean” value (aged male macaques [1]; [9])?
A: 89.333 % correct responses

Q: And the “day to C (days to reach criterion), mean” value (aged male macaques [1]; [9])?
A: 14.000 days

Q: And the “C value (criterion value reached), mean” value (aged male macaques [1]; [10])?
A: 90.0±2.6 % correct responses and 90.000 % correct responses

Q: And the “day to C (days to reach criterion), mean” value (aged male macaques [1]; [10])?
A: 11.8 ± 2.3 days and 11.800 days

Q: And the C value (aged male macaques [1]; 10 mg/kg p.o. daily)?
A: 89.00 % correct responses (2×) and 86.00 % correct responses (3×) and 100.00 % correct responses

Q: What about the “Days to C” value (aged male macaques [1]; 10 mg/kg p.o. daily) of the same molecule?
A: 18 days and 9 days and 5 days and 12 days and 15 days and 25 days

Q: What about the “RT 1-14 (retention test trials 1 to 14), mean” value (aged male macaques [1]; [11]) of the same molecule?
A: 58.4±4.1 % correct and 58.400 % correct

Q: And the “RT 15-28 (retention test trials 15 to 28), mean” value (aged male macaques [1]; [11])?
A: 71.4±6.1 % correct and 71.400 % correct

Q: What about the “retention test, mean” value (aged male macaques [1]; [11]) of the same molecule?
A: 65.0±3.5 % correct responses and 65.000 % correct responses

Q: What about the “RT 1-14 (retention test trials 1 to 14), mean” value (aged male macaques [1]; [12]) of the same molecule?
A: 59.333 % correct responses

Q: And the “RT 15-28 (retention test trials 15 to 28), mean” value (aged male macaques [1]; [12])?
A: 72.667 % correct responses

Q: What about the “retention test, mean” value (aged male macaques [1]; [12]) of the same molecule?
A: 66.000 % correct responses

Q: What about the RT overall (aged male macaques [1]; 100 mg/kg p.o. daily) of the same molecule?
A: 75.00 % correct responses and 71.00 % correct responses and 57.00 % correct responses (2×) and 68.00 % correct responses (2×)

Q: What about the “RT trials 1-14” value (aged male macaques [1]; 100 mg/kg p.o. daily) of the same molecule?
A: 64.00 % correct responses (2×) and 50.00 % correct responses (2×) and 57.00 % correct responses and 71.00 % correct responses

Q: And the “RT trials 15-28” value (aged male macaques [1]; 100 mg/kg p.o. daily)?
A: 86.00 % correct responses (2×) and 79.00 % correct responses and 64.00 % correct responses (2×) and 57.00 % correct responses

Q: And the “C value (criterion value reached), mean” value (aged male macaques [1]; [13])?
A: 86.333 % correct responses

Q: What about the “day to C (days to reach criterion), mean” value (aged male macaques [1]; [13]) of the same molecule?
A: 10.333 days

Q: What about the “C value (criterion value reached), mean” value (aged male macaques [1]; [14]) of the same molecule?
A: 86.4±0.7 % correct responses and 86.400 % correct responses

Q: What about the “day to C (days to reach criterion), mean” value (aged male macaques [1]; [14]) of the same molecule?
A: 9.0 ± 2.8 days and 9.000 days

Q: What about the C value (aged male macaques [1]; 100 mg/kg p.o. daily) of the same molecule?
A: 85.00 % correct responses and 86.00 % correct responses (4×) and 89.00 % correct responses

Q: What about the “Days to C” value (aged male macaques [1]; 100 mg/kg p.o. daily) of the same molecule?
A: 11 days and 3 days and 10 days and 18 days and 17 days

Q: What about the “animals with improved memory performance (decrease in the number of days needed to reach criterion)” value (aged male macaques [1]; 1, 10, 100 mg/kg p.o., six aged macaques) of the same molecule?
A: Five of the six

Q: And the “days to criterion versus vehicle” value (aged male macaques [1]; each dose (1, 10, 100 mg/kg p.o.), Bonferroni t-test, p<0.050, old-9 excluded)?
A: significant decrease

Q: What about the “learning ability and long term memory of normal aged non-human primates” value (aged male macaques [1]; summary of study) of the same molecule?
A: significantly improves

Q: And the “behavioral or physical side effects” value (aged male macaques [2])?
A: no noticeable behavioral or physical side effects

Q: For `COc1ccc(C2CNC(=O)C2)cc1OC1CCCC1` (centres unmarked) [rolipram], which “age-dependent loss of hippocampal-dependent memory and cellular long-term potentiation” value (aged rats) is on record?
A: ameliorates
